Assay results from patent US7998414B2, “System for high throughput GPCR functional assay” (priority 2007, dated 2011).

Target: T1, opioid receptor mu (OPRM) (Homo sapiens, UniProt P35372)
T1 construct: purchased Perkin-Elmer Life Science (Boston, Mass.)
Experiment: Eu-GTP based functional assay on GPCR microarray on porous glass substrate
Type: biochemical
Conditions: multiplexed array; Eu-GTP 10 nM, GDP 3 μM, 1 hour; FIG. 5E

T1 sequence (P35372 whole entry): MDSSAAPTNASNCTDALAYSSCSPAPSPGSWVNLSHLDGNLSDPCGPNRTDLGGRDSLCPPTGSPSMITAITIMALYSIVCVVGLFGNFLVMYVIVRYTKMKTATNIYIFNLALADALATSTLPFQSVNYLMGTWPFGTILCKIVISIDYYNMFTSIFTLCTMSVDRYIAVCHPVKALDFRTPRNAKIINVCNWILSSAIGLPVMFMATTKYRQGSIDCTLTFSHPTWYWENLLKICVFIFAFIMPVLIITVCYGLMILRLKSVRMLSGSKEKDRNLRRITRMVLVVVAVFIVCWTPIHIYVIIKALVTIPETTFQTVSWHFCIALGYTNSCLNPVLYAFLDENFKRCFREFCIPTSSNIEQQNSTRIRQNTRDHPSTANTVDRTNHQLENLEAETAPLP

Question: How did the “activation of OPRM receptors by agonist (Eu-GTP fluorescence image)” value turn out when `C[C@@H](NC(=O)[C@@H](N)Cc1ccc(O)cc1)C(=O)NCC(=O)N(C)[C@@H](Cc1ccccc1)C(=O)NCCO` [DAMGO] was run?
Answer: selective activation
